The subject of this assay is T1, 3-chlorobenzoate-1,2-dioxygenase (3-CBDO; 3-CBA-1,2-DO).
T1 construct: native enzyme, not purified, in intact freshly harvested 3-CBA-grown cells; component and subunit make-up printed only for the analogous benzoate 1,2-dioxygenase; with 3-chlorobenzoate 1,2-dioxygenase subunit beta (benzoate 1,2-dioxygenase small subunit-like); 3-chlorobenzoate 1,2-dioxygenase reductase component (benzoate 1,2-dioxygenase reductase-like)
Nature of the assay: respiration of intact cells, Clark oxygen electrode reactor biosensor; Hill fit. The class given is cell-based, Rhodococcus opacus. The note with it: 50 mM Tris-HCl pH 8.0, air-saturated, room temperature; intact 3-CBA-grown cells (indirect estimate of enzyme activity); Hill n 2.36; no added inhibitor; read-out: S0.5.

These results are taken from paper PMC6784447, “Evaluation of 3-Chlorobenzoate 1,2-Dioxygenase Inhibition by 2- and 4-Chlorobenzoate with a Cell-Based Technique” (Biosensors, 2019).

For the compound `O=C(O)c1cccc(Cl)c1` [3-chlorobenzoate], the Km was 45.3 ± 6.3 µM.
